Assay: Radioactive decay of the isotopes
Format: physicochemical
Settings: at day 30, from half-life

For `[166Ho]` [Ho-166, holmium-166], the “radioactive isotope expected to remain in the subject” value was “less than 0.20%”.

For `[177Lu]` [Lu-177, lutetium-177], the “radioactive isotope expected to remain in the subject” value was “less than 6.25%”.
